Measurements taken from US10351586B2, “Cytidine derivative dimers and applications thereof” (CHANGZHOU FANGYUAN PHARMACEUTICAL CO., LTD, priority 2014, dated 2019).
Marks after values point to notes of the source that are not given here.

Legend:
[1] = test system: HCT-116 human colon cancer xenografts; assay: Tumor growth inhibition of HCT-116 human colon cancer xenografts in nude mice; assay type: in vivo, Balb/c nude mice; details: for Relative tumor proliferation rate (T/C %) / Relative tumor volume (RTV) / Tumor growth inhibition rate (TGI %) / Tumor volume of HCT-116 human colon cancer xenografts: single IP injection (QD×1), D1 and D2 400 mg/kg, D3 350 mg/kg, D4 300 mg/kg; for Tumor volume of HCT-116 human colon cancer xenografts: Mean±SEM
Experimental: 2. Preparation of the test substance was performed by dissolving the test substance using the following solvents:
3. Animal experiments were performed. […] Animals were numbered using their tail number.
4.1 Tumor cells were human HCT-116 colon cancer cells purchased from the Institute of Cell Biology, Chinese Academy of Sciences (Beijing, China). F-12 medium (containing 10% FBS) was used to culture cells in a carbon dioxide incubator at about 37° C., saturated humidity, under 5% CO2 and 95% air. Before inoculation, cells in logarithmic growth phase were collected. After digested by 0.25% trypsin, the cells were washed with PBS once. The cells were resuspended with serum-free medium and counted. Serum-free medium were used for cell resuspension, until the cell concentration was adjusted to about 3×10^7 cell/mL.
4.2 Animal inoculation and grouping were performed.
The diameters (D) of the tumor nodules were measured three times a week with a circle sizer ruler. In addition, the following formula was applied to calculate the volume of the tumor nodules (V): V=[…](D/2)^3 generally for a spherical shape. Evaluation indexes of antitumor activity were tumor growth inhibition rate TGI (%) and relative tumor proliferation rate T/C (%).
The calculation formula of TGI was: TGI (%)=(Vcontrol−VTreatment)/Vcontrol)×100%. The relative tumor volume (RTV) was calculated by: RTV=Vt/V0, where V0 is the tumor volume at the time of group administration, and Vt is the tumor volume at the time of measurement.
The mice were weighed 3 times every week.
4.5 Data and statistical analysis were provided.

[2] = Body weight / toxicity of a single intraperitoneal injection in HCT-116 colon tumor-bearing nude mice; details: D3 350 mg/kg, D4 300 mg/kg; for Average rate of weight change of the animals / Average weight of the animals: single IP injection (QD×1), D1 and D2 400 mg/kg; for Average weight of the animals: Mean±SEM
Experimental: Corresponding test substance was weighed and put into a 5 mL glass tube. The test substance was dissolved in ethanol under the stirring by a 5 mm magnetic stirrer. After a complete dissolution, Cremophor EL was added with continuous stirring. Immediately prior to the user of the test substance, the labeled amount of physiological saline was added and stirred.
Animal experiments were performed. The animals were female Balb/c nude mice at specific pathogen free (SPF) level and were supplied from Shanghai Sippr/BK Lab Animal Ltd. (Shanghai, China). […] These animals were at the age of about 7 weeks to about 9 weeks at the beginning of the experiments and had the weight of about 18 grams to about 22 grams at the beginning of the experiment. The animals had acclimatization duration of about 5 days to about 7 days. Animals were numbered using their tail number. The animal room was maintained at about 23±2° C., 40%-70% humidity, with alternating light and dark every 12 hours.
4.2 Animal inoculation and grouping were performed. Under aseptic conditions, each nude mice was injected with 0.1 mL cell suspension into the right hind leg subcutaneously (3×10^6 cell/mouse). When the size of the tumor grew to have a volume of about 60-150 mm^3, nude mice with a similar tumor size and a desirable shape (e.g., with substantially same shape such as a substantially spherical shape, without having irregular shapes or multiple tumors grouped together) were selected and grouped. In the experiment, there were six mice in each group.
The mice in control group were injected with a mixed solution including ethanol, Cremophor EL and normal saline at a ratio of 5:5:90.
4.4 Clinical symptoms were provided. All clinical symptoms of each animal were recorded at the beginning of the experiments and during the experiments. The observation was performed at the same time every day.
After administration of the test substance, when the weight reduction was >20%, when the animal was dying, or when the tumor volume exceeds about 2800 mm^3, the animal were euthanized by applying CO2. The tumor was separated and weighed, an autopsy was performed, and visual inspection was conducted and recorded on whether there were pathological changes in the organs.

[3] = D1 400 mg/kg Day 7, D2 400 mg/kg Day 9, D3 350 mg/kg Day 11, D4 300 mg/kg Day 11, single IP

Compound: O=C(CCCC(=O)OC[C@H]1O[C@@H](n2ccc(NC(=O)OCc3ccccc3)nc2=O)C(F)(F)[C@@H]1O)OC[C@H]1O[C@@H](n2ccc(NC(=O)OCc3ccccc3)nc2=O)C(F)(F)[C@@H]1O [Compound D3, 1,5-di-[4-N-(benzyloxycarbonyl)-2′-deoxy-2′,2′-difluoro-cytidine]glutarate]
- Relative tumor proliferation rate, minimum [1, 3]: 3.41%
- Tumor inhibition rate, maximum [1, 3]: 98.54%
- Relative tumor proliferation rate (T/C %) ([1]; Day 0): 0.00%
- Relative tumor volume (RTV) ([1]; Day 0): 1.00
- Tumor growth inhibition rate (TGI %) ([1]; Day 0): 0.00%
- Tumor volume of HCT-116 human colon cancer xenografts ([1]; Day 0): 38.77 ± 4.33** mm^3
- Relative tumor proliferation rate (T/C %) ([1]; Day 1): 60.98%
- Relative tumor volume (RTV) ([1]; Day 1): 0.98 ± 0.12
- Tumor growth inhibition rate (TGI %) ([1]; Day 1): 79.83%
- Tumor volume of HCT-116 human colon cancer xenografts ([1]; Day 1): 36.40 ± 3.98** mm^3
- Relative tumor proliferation rate (T/C %) ([1]; Day 2): 49.58%
- Relative tumor volume (RTV) ([1]; Day 2): 0.98 ± 0.12
- Tumor growth inhibition rate (TGI %) ([1]; Day 2): 83.59%
- Tumor volume of HCT-116 human colon cancer xenografts ([1]; Day 2): 36.40 ± 3.98** mm^3
- Relative tumor proliferation rate (T/C %) ([1]; Day 4): 23.26%
- Relative tumor volume (RTV) ([1]; Day 4): 0.65 ± 0.10
- Tumor growth inhibition rate (TGI %) ([1]; Day 4): 92.26%
- Tumor volume of HCT-116 human colon cancer xenografts ([1]; Day 4): 23.00 ± 3.08** mm^3
- Relative tumor proliferation rate (T/C %) ([1]; Day 7): 6.76%
- Relative tumor volume (RTV) ([1]; Day 7): 0.34 ± 0.06
- Tumor growth inhibition rate (TGI %) ([1]; Day 7): 97.08%
- Tumor volume of HCT-116 human colon cancer xenografts ([1]; Day 7): 12.62 ± 3.10** mm^3
- Relative tumor proliferation rate (T/C %) ([1]; Day 9): 4.71%
- Relative tumor volume (RTV) ([1]; Day 9): 0.32 ± 0.05
- Tumor growth inhibition rate (TGI %) ([1]; Day 9): 97.86%
- Tumor volume of HCT-116 human colon cancer xenografts ([1]; Day 9): 12.62 ± 3.10** mm^3
- Relative tumor proliferation rate (T/C %) ([1]; Day 11): 3.41%
- Relative tumor volume (RTV) ([1]; Day 11): 0.37 ± 0.09
- Tumor growth inhibition rate (TGI %) ([1]; Day 11): 98.54%
- Tumor volume of HCT-116 human colon cancer xenografts ([1]; Day 11): 14.28 ± 3.69** mm^3
- Relative tumor proliferation rate (T/C %) ([1]; Day 14): 5.78%
- Relative tumor volume (RTV) ([1]; Day 14): 1.00 ± 0.00
- Tumor growth inhibition rate (TGI %) ([1]; Day 14): 97.43%
- Tumor volume of HCT-116 human colon cancer xenografts ([1]; Day 14): 36.98 ± 4.82** mm^3
- Relative tumor proliferation rate (T/C %) ([1]; Day 16): 10.49%
- Relative tumor volume (RTV) ([1]; Day 16): 2.17 ± 0.14
- Tumor growth inhibition rate (TGI %) ([1]; Day 16): 95.58%
- Tumor volume of HCT-116 human colon cancer xenografts ([1]; Day 16): 80.10 ± 11.07** mm^3
- Relative tumor proliferation rate (T/C %) ([1]; Day 18): 16.55%
- Relative tumor volume (RTV) ([1]; Day 18): 3.16 ± 0.39
- Tumor growth inhibition rate (TGI %) ([1]; Day 18): 93.97%
- Tumor volume of HCT-116 human colon cancer xenografts ([1]; Day 18): 120.40 ± 23.44** mm^3
- Relative tumor proliferation rate (T/C %) ([1]; Day 21): 23.70%
- Relative tumor volume (RTV) ([1]; Day 21): 5.55 ± 0.66
- Tumor growth inhibition rate (TGI %) ([1]; Day 21): 91.65%
- Tumor volume of HCT-116 human colon cancer xenografts ([1]; Day 21): 204.05 ± 36.25 mm^3
- Relative tumor proliferation rate (T/C %) ([1]; Day 23): 31.41%
- Relative tumor volume (RTV) ([1]; Day 23): 6.21 ± 0.61
- Tumor growth inhibition rate (TGI %) ([1]; Day 23): 90.30%
- Tumor volume of HCT-116 human colon cancer xenografts ([1]; Day 23): 229.06 ± 36.15 mm^3
- Relative tumor proliferation rate (T/C %) ([1]; Day 25): 33.40%
- Relative tumor volume (RTV) ([1]; Day 25): 7.22 ± 0.53
- Tumor growth inhibition rate (TGI %) ([1]; Day 25): 89.70%
- Tumor volume of HCT-116 human colon cancer xenografts ([1]; Day 25): 266.11 ± 39.63 mm^3
- Relative tumor proliferation rate (T/C %) ([1]; Day 28): 43.93%
- Relative tumor volume (RTV) ([1]; Day 28): 9.28 ± 0.73
- Tumor growth inhibition rate (TGI %) ([1]; Day 28): 87.09%
- Tumor volume of HCT-116 human colon cancer xenografts ([1]; Day 28): 347.17 ± 60.84 mm^3
- Relative tumor proliferation rate (T/C %) ([1]; Day 30): 52.09%
- Relative tumor volume (RTV) ([1]; Day 30): 12.93 ± 0.90
- Tumor growth inhibition rate (TGI %) ([1]; Day 30): 82.93%
- Tumor volume of HCT-116 human colon cancer xenografts ([1]; Day 30): 479.01 ± 75.54 mm^3
- Inhibition of growth of HCT-116 human colon cancer xenografts (in words) ([1]; single IP injection, 300-400 mg/kg): higher tumor inhibition rates
- Average rate of weight change of the animals ([2]; Day 0): 0.00%
- Average weight of the animals ([2]; Day 0): 19.95 ± 0.09 g
- Average rate of weight change of the animals ([2]; Day 1): −3.59 ± 0.66%
- Average weight of the animals ([2]; Day 1): 19.23 ± 0.31 g
- Average rate of weight change of the animals ([2]; Day 2): −11.25 ± 0.96 %
- Average weight of the animals ([2]; Day 2): 17.70 ± 0.26 g
- Average rate of weight change of the animals ([2]; Day 4): −8.10 ± 2.84%
- Average weight of the animals ([2]; Day 4): 18.24 ± 0.58 g
- Average rate of weight change of the animals ([2]; Day 7): −1.68 ± 2.50%
- Average weight of the animals ([2]; Day 7): 19.51 ± 0.48 g
- Average rate of weight change of the animals ([2]; Day 9): 4.50 ± 1.93 %
- Average weight of the animals ([2]; Day 9): 20.74 ± 0.38 g
- Average rate of weight change of the animals ([2]; Day 11): 6.38 ± 1.68 %
- Average weight of the animals ([2]; Day 11): 21.12 ± 0.41 g
- Average rate of weight change of the animals ([2]; Day 14): 7.12 ± 1.19 %
- Average weight of the animals ([2]; Day 14): 21.26 ± 0.21 g
- Average rate of weight change of the animals ([2]; Day 16): 10.78 ± 0.88 %
- Average weight of the animals ([2]; Day 16): 22.00 ± 0.40 g
- Average rate of weight change of the animals ([2]; Day 18): 13.71 ± 0.63 %
- Average weight of the animals ([2]; Day 18): 22.58 ± 0.38 g
- Average rate of weight change of the animals ([2]; Day 21): 10.72 ± 1.6 %
- Average weight of the animals ([2]; Day 21): 21.98 ± 0.41 g
- Average rate of weight change of the animals ([2]; Day 23): 13.08 ± 2.31 %
- Average weight of the animals ([2]; Day 23): 22.44 ± 0.41 g
- Average rate of weight change of the animals ([2]; Day 25): 13.34 ± 2.34 %
- Average weight of the animals ([2]; Day 25): 22.50 ± 0.53 g
- Average rate of weight change of the animals ([2]; Day 28): 11.44 ± 2.29 %
- Average weight of the animals ([2]; Day 28): 22.12 ± 0.48 g
- Average rate of weight change of the animals ([2]; Day 30): 15.37 ± 2.93%
- Average weight of the animals ([2]; Day 30): 22.90 ± 0.60 g
- Toxicity in tumor-bearing mice (in words) ([2]; single IP injection, D2 400 mg/kg, judged from body weight versus control): no toxicity
